Laboratory results: patent publication US20170298055A1, “sGC STIMULATORS” (IRONWOOD PHARMACEUTICALS, INC., priority 2014, published 2017)

Molecular target: T1, soluble guanylate cyclase (sGC) (Homo sapiens, UniProt Q02108+Q02153)
T1 construct: endogenously expressing soluble guanylate cyclase (sGC); endogenous in cells; host or cells: HEK293
T1 sequence (Q02153 1-619): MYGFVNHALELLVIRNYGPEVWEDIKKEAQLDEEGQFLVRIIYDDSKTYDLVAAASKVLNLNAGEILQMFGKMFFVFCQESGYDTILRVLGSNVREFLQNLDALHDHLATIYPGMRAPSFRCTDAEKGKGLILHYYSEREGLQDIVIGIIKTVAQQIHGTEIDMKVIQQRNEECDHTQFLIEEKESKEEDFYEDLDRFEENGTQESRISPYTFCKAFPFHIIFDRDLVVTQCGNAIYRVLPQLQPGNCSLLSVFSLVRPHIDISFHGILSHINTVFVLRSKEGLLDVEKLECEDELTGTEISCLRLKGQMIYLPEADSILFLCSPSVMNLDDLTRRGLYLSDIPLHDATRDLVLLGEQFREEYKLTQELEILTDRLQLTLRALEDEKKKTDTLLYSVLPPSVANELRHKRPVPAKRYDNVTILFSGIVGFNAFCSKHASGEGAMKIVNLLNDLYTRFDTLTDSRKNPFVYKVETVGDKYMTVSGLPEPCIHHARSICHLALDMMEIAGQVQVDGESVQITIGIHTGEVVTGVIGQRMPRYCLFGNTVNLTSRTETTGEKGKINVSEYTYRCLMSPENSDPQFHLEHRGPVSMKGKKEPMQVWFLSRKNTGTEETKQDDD
T1 sequence (Q02108 1-690): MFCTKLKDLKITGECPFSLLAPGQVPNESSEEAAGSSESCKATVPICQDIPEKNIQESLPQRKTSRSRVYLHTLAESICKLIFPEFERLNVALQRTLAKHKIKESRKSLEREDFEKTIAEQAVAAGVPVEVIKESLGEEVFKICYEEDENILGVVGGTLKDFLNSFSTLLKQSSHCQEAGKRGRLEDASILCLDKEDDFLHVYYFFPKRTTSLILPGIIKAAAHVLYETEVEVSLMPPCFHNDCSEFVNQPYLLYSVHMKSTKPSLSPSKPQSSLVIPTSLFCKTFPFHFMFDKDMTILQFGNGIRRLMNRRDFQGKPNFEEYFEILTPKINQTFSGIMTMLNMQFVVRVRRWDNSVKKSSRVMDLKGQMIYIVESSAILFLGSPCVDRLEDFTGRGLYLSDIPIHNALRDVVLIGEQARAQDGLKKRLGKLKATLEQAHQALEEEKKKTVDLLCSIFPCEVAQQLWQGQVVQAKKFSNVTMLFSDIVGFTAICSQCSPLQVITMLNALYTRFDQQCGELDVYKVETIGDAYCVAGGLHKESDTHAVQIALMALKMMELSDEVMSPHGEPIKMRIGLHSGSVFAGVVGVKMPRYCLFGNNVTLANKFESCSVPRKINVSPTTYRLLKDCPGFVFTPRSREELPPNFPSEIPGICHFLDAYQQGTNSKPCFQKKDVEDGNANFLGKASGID
Assay: sGC-HEK-cGMP assay, LC/MS detection, with SNP incubation (Example 2A)
Type: cell-based
Conditions: HEK293 cells, in the presence of 10 μM SNP; constrained fit; read-out: sGC_HEK_LCMS cEC50 (nM) Binned (constrained)
Procedure: Human embryonic kidney cells (HEK293), endogenously expressing soluble guanylate cyclase (sGC), were used to evaluate the activity of test compounds. Compounds stimulating the sGC receptor should cause an increase in the intracellular concentration of cGMP. HEK 293 cells were seeded in Dulbecco's Modification of Eagle's Medium supplemented with fetal bovine serum (10% final) and L-glutamine (2 mM final) in a 200 μL volume at a density of 1×10^5 cells/well in a poly-D-lysine coated 96 well flat bottom plate and grown overnight at 37° C. Medium was aspirated and cells were washed with 1× Hank's Buffered Saline Salt Solution (200 μL). Cells were then incubated for 15 minutes at 37° C. with 0.5 mM 3-isobutyl-1-methylxanthine (200 μL). Test article and sodium nitroprusside were then added to the assay mixture (2 μL each) and incubated at 37° C. for 10 minutes. After the 10 minute incubation, the assay mixture was aspirated and 0.1M HCl (200 μL) was added to the cells. The plate was incubated at 4° C. for 30 minutes in the 0.1M HCl to stop the reaction and lysed the cells. The plates were then centrifuged at 1,200 g for 5 minutes at room temperature. Supernatants were collected and transferred to a new flat bottom 96 well plate for analysis. Vehicle controls were carried out using DMSO (1%). A known sGC stimulator, BAY 41-2272, was used as the positive control. Samples were diluted with an equal volume of 1 M Ammonium Acetate (pH 7) to neutralize samples for better chromatography. A 2× cGMP standard curve was prepared in 0.1 M HCl and then diluted with an equal volume of 1 M Ammonium Acetate, with the following final concentrations in nM: 1024, 512, 256, 128, 64, 32, 16, 8, 4, 2, 1. cGMP concentrations were determined from each sample using the LC/MS conditions (Table 2 below) and calculated standard curve. EC50 values were calculated from concentration-response curves generated with GraphPad Prism Software.
In the case of CS(=O)(=O)CCCOc1nc(-c2cc(-c3ccon3)n(Cc3ccccc3F)n2)ncc1F [Compound I-18], the EC50 is reported as 1000 to 5000 nM.
With Fc1ccccc1Cn1nc(-c2ncc(F)c(OC3CCNC3)n2)cc1-c1ccon1 (centres unmarked) [Compound I-5] the EC50 was 1000 to 5000 nM.
With O=C(COc1nc(-c2cc(-c3ccon3)n(Cc3ccccc3F)n2)ncc1F)N1CCOCC1 [Compound I-11] the EC50 was 1000 to 5000 nM.

Same assay, conditions: HEK293 cells, in the presence of 10 μM SNP; top of concentration-response curve not fitted to 100%; read-out: sGC_HEK_LCMS uEC50 (nM) Binned (unconstrained)
COC(=O)COc1nc(-c2cc(-c3ccon3)n(Cc3ccccc3F)n2)ncc1F [Compound I-7] gave an EC50 of 1000 to 5000 nM.
With Fc1ccccc1Cn1nc(-c2ncc(F)c(OCC(F)(F)c3ccccn3)n2)cc1-c1ccon1 [Compound I-17] the EC50 was 100 to 1000 nM.
COC(=O)c1ccccc1C#Cc1nc(-c2cc(-c3ccon3)n(Cc3ccccc3F)n2)ncc1F [Compound I-23] showed an EC50 of 1000 to 5000 nM.
CS(=O)(=O)N1CCCC(Oc2nc(-c3cc(-c4ccon4)n(Cc4ccccc4F)n3)ncc2F)C1 (centres unmarked) [Compound I-21] showed an EC50 of 1000 to 5000 nM.
In the case of COC(=O)C1(Oc2nc(-c3cc(-c4ccon4)n(Cc4ccccc4F)n3)ncc2F)CC1 [Compound I-8], the EC50 is reported as 1000 to 5000 nM.
For CC(C)(C)OC(=O)N1CCCC1COc1nc(-c2cc(-c3ccon3)n(Cc3ccccc3F)n2)ncc1F (centres unmarked) [Compound I-4], the EC50 was 1000 to 5000 nM.
O=C1O/C(=C\c2nc(-c3cc(-c4ccon4)n(Cc4ccccc4F)n3)ncc2F)c2ccccc21 [Compound I-26] gave an EC50 of 1000 to 5000 nM.
Work on Fc1ccccc1Cn1nc(-c2ncc(F)c(OC3CNC3)n2)cc1-c1ccon1 [Compound I-14] yielded an EC50 of 1000 to 5000 nM.
For Fc1ccccc1Cn1nc(-c2ncc(F)c(OC3CCNCC3)n2)cc1-c1ccon1 [Compound I-13], the EC50 was ≥ 5000 nM.
In the case of Fc1ccccc1Cn1nc(-c2ncc(F)c(OC3CCOC3)n2)cc1-c1ccon1 (centres unmarked) [Compound I-15], the EC50 is reported as 100 to 1000 nM.
In the case of O=C(O)c1ccccc1C(=O)Cc1nc(-c2cc(-c3ccon3)n(Cc3ccccc3F)n2)ncc1F [Compound I-27], the EC50 is reported as 1000 to 5000 nM.

Molecular target: T2, sGC enzyme (Homo sapiens, UniProt Q02108+Q02153)
T2 construct: host or cells: HEK293 cells stably expressing GloSensor 40F cGMP biosensor
T2 sequence (Q02153 1-619): T1 sequence (Q02153 1-619)
T2 sequence (Q02108 1-690): T1 sequence (Q02108 1-690)
Assay: cGMP GloSensor cell-based assay, 384-well format (Example 2C)
Conditions: read-out: sGC_HEK_GloSensor EC50/IC50 Abs (Norm) (nM) Binned
Source text: Human embryonic kidney cells (HEK293) cells expressing GloSensor™ 40F cGMP (Part No: CS182801, Promega) were used to evaluate the activity of test compounds. The luminescent biosensors (engineered luciferase) that were incorporated into these cells detect cGMP formed by the compounds stimulating the sGC enzyme and emit luminescence.
cGMP GloSensor cells were maintained in Dulbecco's Modification of Eagle's Medium (DMEM) supplemented with fetal bovine serum (FBS) (10% final) and hygromycine (200 ug/ml). The day before assay, cells were plated in DMEM with 10% FBS in a 50 μL volume at a density of 1.5×10^4 cells/well in a poly-D-lysine coated 384-well flat white-bottom plate (Corning Cat No 35661). Cells were incubated overnight at 37° C. in a humidified chamber with 5% CO2. The next day, medium was removed and cells were replaced with 40 ul/well of GloSensor™, 2 mM (Promega Cat No E1291). Cells were treated for 90 minutes at 25° C. to allow the substrate to equilibrate in the cells. Test compounds and Diethylenetriamine NONOate (DETA-NONOate) was diluted to 3 mM (20×) in serum-free CO2 independent medium and serally diluted at 4× dilutions to create 5× dose curve from which 10 ul was added to the wells (x μM concentration for test compound solution and 10 μM concentration for DETA-NONOate solution; wherein x is one of the following final concentrations).
For the kinetics studies, luminescense was measured right away for 0.2 sec per well with Envision (Perkin Elmer model No). For endpoint SAR screening, data were collected after 55 min incubation at room temperature.
Data analysis was carried out as indicated above in Example 2C.
For Fc1ccccc1Cn1nc(-c2ncc(F)c(Sc3ccccc3)n2)cc1-c1ccon1 [Compound I-37], the EC50 was 100 to 1000 nM.
For OCCSc1nc(-c2cc(-c3ccon3)n(Cc3ccccc3F)n2)ncc1F [Compound I-34], the EC50 was > 1000 nM.
In the case of OCCSc1cnc(-c2cc(-c3ccon3)n(Cc3ccccc3F)n2)nc1SCCO [Compound I-35], the EC50 is reported as > 1000 nM.
For O=S(=O)(c1ccccc1)c1nc(-c2cc(-c3ccon3)n(Cc3ccccc3F)n2)ncc1F [Compound I-38], the EC50 was ≤ 100 nM.

Molecular target: T3, human recombinant soluble guanylate cyclase enzyme α1β1 (Homo sapiens, UniProt Q02108+Q02153)
T3 construct: purchased Enzo Life Sciences ALX-201-177
T3 sequence (Q02153 1-619): T1 sequence (Q02153 1-619)
T3 sequence (Q02108 1-690): T1 sequence (Q02108 1-690)
Assay: Purified human recombinant sGC α1β1 enzyme assay with DETA-NONOate, cGMP HTRF (Example 5)
Type: biochemical
Conditions: 30 uM DETA NONOate, 50% of maximal response of 30 uM Compound Y, read-out: sGC_Enz_HTRF_a1b1 EC50/IC50 Abs (Norm) (nM) Binned
Procedure: Purified human recombinant soluble guanylate cyclase enzyme α1β1 (h sGC) obtained from Enzo Life Sciences (P/N: ALX-201-177) was used to evaluate the activity of test compounds. The assay reactions contained 0.1 M Tris (pH 8.0), 0.5 mg/mL BSA, 2 mM DTT, 4 mM MgCl2, 30 uM DETA NONOate (Enzo Life Science P/N: ALX-430-014), and 12.5 ng/ml human soluble guanylate cyclase enzyme. […] Guanosine 5′-triphosphate (Sigma-Aldrich P/N: G8877) was added to a final concentration of 300 μM and enzyme reactions were incubated (100 μL, 384-well plate format) at 37° C. for 20 minutes. The controls contained 3% DMSO (low control), or 30 uM of Compound Y (high control). After the 20 minute incubation, the reaction was stopped with the addition of 100 μL of ice cold 20% acetic acid.
cGMP concentrations in all samples were determined using the cGMP HTRF (Cisbio P/N: 62GM2PEC) assay per manufacturer's instructions. A cGMP standard curve was fit using a 4-parameter fit (log(inhibitor) vs. response variable slope) using GraphPad Prism Software v.6. Samples were diluted appropriately to ensure that values fell within the linear range of the standard curve.
Data were fit using a 4-parameter fit (log(agonist) vs. response variable slope) using GraphPad Prism Software v.6.
For O=C(O)COc1nc(-c2cc(-c3ccon3)n(Cc3ccccc3F)n2)ncc1F [Compound I-6], the EC50 was ≥ 5000 nM.

System: lambs with acute pulmonary hypertension
Assay: not given
Conditions: after intravenous ODQ; cited from earlier work
In the case of O=C(O)CCCCN(CCc1ccccc1OCc1ccc(CCc2ccccc2)cc1)Cc1ccc(C(=O)O)cc1 [BAY 58-2667], the “pulmonary vasodilation and transpulmonary cGMP release after ODQ treatment” value is given as “greatly enhanced”.

Same assay, conditions: combination with inhaled nitric oxide; cited from earlier work
For Nc1nc(-c2nn(Cc3ccccc3F)c3ncccc23)nc(N)c1N1CCOCC1 [BAY 41-8543], the “pulmonary vasodilation induced by iNO after inhaling microparticles” value is listed as “augmented”.

Same assay, conditions: inhaled microparticles, awake lambs, U-46619 infusion; cited from earlier work
In the case of O=C(O)CCCCN(CCc1ccccc1OCc1ccc(CCc2ccccc2)cc1)Cc1ccc(C(=O)O)cc1 [BAY 58-2667], the “effect on mean arterial pressure” value is listed as “without significant effect on mean arterial pressure”, the pulmonary vasodilation is listed as “dose dependent pulmonary vasodilation” and the “transpulmonary cGMP release” value is listed as “increased transpulmonary cGMP release”.
For Nc1nc(-c2nn(Cc3ccccc3F)c3ncccc23)nc(N)c1N1CCOCC1 [BAY 41-8543], the “effect on mean arterial pressure” value is listed as “without significant effect on mean arterial pressure”, the pulmonary vasodilation is listed as “dose dependent pulmonary vasodilation” and the “transpulmonary cGMP release” value is listed as “increased transpulmonary cGMP release”.
For Nc1nc(-c2nn(Cc3ccccc3F)c3ncccc23)ncc1C1CC1 [BAY 41-2272], the “effect on mean arterial pressure” value is given as “without significant effect on mean arterial pressure”, the pulmonary vasodilation is given as “dose dependent pulmonary vasodilation” and the “transpulmonary cGMP release” value is given as “increased transpulmonary cGMP release”.

Same assay, conditions: inhaled microparticles, awake lambs; cited from earlier work
In the case of O=C(O)CCCCN(CCc1ccccc1OCc1ccc(CCc2ccccc2)cc1)Cc1ccc(C(=O)O)cc1 [BAY 58-2667], the systemic arterial oxygenation is given as “increased systemic arterial oxygenation”.
In the case of Nc1nc(-c2nn(Cc3ccccc3F)c3ncccc23)nc(N)c1N1CCOCC1 [BAY 41-8543], the systemic arterial oxygenation is listed as “increased systemic arterial oxygenation”.
